The text below walks through data of US12048281B2, “Method for treating post-emergent rice” (BASF SE, priority 2009, dated 2024).

For data set [1], the system named is transgenic Indica1 rice callus, ACC gene containing I1781(Am)L and W2027(Am)C. The data set is described as follows: Growth of transgenic Indica1 callus on selection media. Type of data set: cell-based, Oryza sativa. To be noted: construct I1781(Am)L. On the procedure: (§1) Indica1 and Nipponbare rice callus transformation was carried out essentially as described in Hiei and Komari (2008) with the exception of media substitutions as specified (see attached media table for details). Callus was induced on R001M media for 4-8 weeks prior to use in transformation. Agrobacterium utilized was LBA4404(pSB1) (Ishida et al. 1996) transformed with RLM185 (L. Mankin, unpublished: contains DsRed and a mutant AHAS for selection), ACC gene containing I1781(Am)L, ACC gene containing I1781(Am)L and W2027C, ACC gene containing I1781(Am)L and I2041(Am)N, or ACC gene containing I1781(Am)A or wild type which also contains a mutant AHAS gene for selection. Agrobacterium grown for 1-3 days on solid media was suspended in M-LS-002 medium and the OD660 adjusted to approximately 0.1. Callus was immersed in the Agrobacterium solution for approximately 30 minutes. Liquid was removed, and then callus was moved to filter paper for co-culture on semi-solid rice cc media. Co-culture was for 3 days in the dark at 24° C. Filters containing rice callus were directly transferred to R001M media containing Timentin for 1-2 weeks for recovery and cultured in the dark at 30° C. Callus was subdivided onto fresh R001M media with Timentin and supplemented with 100 μM Imazethapyr, 10 μM Cycloxydim or 2.5 μM Tepraloxydim. After 3-4 weeks, callus was transferred to fresh selection media. Following another 3-4 weeks, growing callus was transferred to fresh media and allowed to grow prior to Taqman analysis. Taqman analysis was for the Nos terminator and was conducted to provide for a molecular confirmation of the transgenic nature of the selected calli. Growth of transgenic calli was measured with various selection agents by subculturing calli on media containing either 10 μM Cycloxydim or Haloxyfop, 2.5 μM Tepraloxydim or 100 μM Imazethapry. Calli size was measured from scanned images following initial subculture and then after approximately 1 month of growth.
(§2) As can be observed in Table 7, the double mutant constructs allowed for growth on both Cycloxydim and Tepraloxydim in addition to Haloxyfop. The levels utilized in these growth experiments are inhibitory for wild type material. Growth was measured as a % change in size following 1 month of culture on the selection media.

Data set [2] has as its system transgenic Indica1 rice callus, ACC gene containing I1781(Am)L and I2041(Am)N. The description is as above. The following applies: construct I1781(Am)L. Type of data set: cell-based, Oryza sativa. The method, then:
as §1, §2

The subject of data set [3] is rice plants containing the I1,781(Am)L heterozygous mutation. Type of data set: in vivo, Oryza sativa. The following applies: 400-1600 g ai/ha with 0.1% methylated seed oil; rated 1 and 2 weeks after treatment. The method, then: (§3) Selected mutants and escapes were transferred to small pots. Wild-type cultivars and 3 biovars of red rice were germinated from seed to serve as controls.
(§4) After ca. 3 weeks post-transplant. M0 regenerants were sprayed using a track sprayer with 400-1600 g ai/ha cycloxydim (BAS 517H) supplemented with 0.1% methylated seed oil. After the plants had adapted to greenhouse conditions, a subset were sprayed with 800 g ai/ha cycloxydim. Once sprayed, plants were kept on drought conditions for 24 hours before being watered and fertilized again. Sprayed plants were photographed and rated for herbicide injury at 1 (FIG. 3) and 2 weeks after treatment (FIG. 4). […] FIGS. 5-15 provide nucleic acid and/or amino acid sequences of acetyl-Coenzyme A carboxylase enzymes from various plants. FIG. 17 provides a graph showing results for mutant rice versus various ACCase inhibitors.

In data set [4] the test system is ACCase-inhibitor tolerant rice plants. Kind of data set: Field treatment of ACCase-inhibitor tolerant rice. It is filed as in vivo, Oryza sativa. The following applies: 600 g/ha; data not shown.
In data set [5] the test system is control plants (wild-type cultivars, red rice) and tissue culture escapes. The data set is described as follows: Greenhouse track-sprayer test, herbicide injury rating. It is filed as in vivo, Oryza sativa. To be noted: 400-1600 g ai/ha with 0.1% methylated seed oil; rated 1 and 2 weeks after treatment. On the procedure: as §3, §4

On to `CCCC(=NOCC)C1=C(O)CC(C2CCCSC2)CC1=O` (centres unmarked) [cycloxydim], for which the figures for the “Growth, % change in size following 1 month of culture on the selection media” value (from here on “Growth, % change … on the selection media”) in data set [1] (10 μM in selection media) and in data set [2] (10 μM in selection media) were 867% and 884%, respectively. For the same compound, the values for the herbicide injury result in data set [3] and in data set [5] were “No injury” and “heavily damaged”, respectively. Further, the “herbicide tolerance in the field” value in data set [4] is given as “Herbicide tolerance phenotypes as described herein have also been exhibited”.

As for `CCc1cnc(C2=NC(C)(C(C)C)C(=O)N2)c(C(=O)O)c1` (centres unmarked) [P100, Imazethapyr], the “Growth, % change … on the selection media” value came out at 739% in data set [1] (100 μM in selection media) and 634% in data set [2] (100 μM in selection media).

`CC/C(=N\OC/C=C/Cl)C1=C(O)CC(C2CCOCC2)CC1=O` (centres unmarked) [tepraloxydim]: the “Growth, % change … on the selection media” value in data set [1] (2.5 μM in selection media) is 1416%; in data set [2] (2.5 μM in selection media), 1360%.

For `CC(Oc1ccc(Oc2ncc(C(F)(F)F)cc2Cl)cc1)C(=O)O` (centres unmarked) [haloxyfop], the entries for the “Growth, % change … on the selection media” value in data set [1] (10 μM in selection media) and in data set [2] (10 μM in selection media) were 1669% and 1613%, respectively.
